Assay results as given in the supplement of paper PMC5908809.

How the values were obtained:
[1] = tested on: normal NK cells expanded with K562-aAPC; assay: percent inhibition of viability; higher = more inhibition; conditions: 72 h, IL-2 2.5 ng/mL
Procedure: (§1)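 Drug sensitivity and resistance testing on K562-aAPC-expanded normal NK cells: 5 concentrations (10-fold steps over a 10,000-fold range), 72 h at 37 °C, viability by CellTiter-Glo normalised to DMSO and benzethonium chloride controls; DSS from the fitted curve.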

DERL-7 (IL-2 2.5 ng/mL) [2] = assay: as above; conditions: 72 h
IMC-1 (IL-2 20 ng/mL) [3] = assay: as above; conditions: 72 h
KAI3 (IL-2 2.5 ng/mL) [4] = assay: as above; conditions: 72 h
KHYG-1 (IL-2 2.5 ng/mL) [5] = assay: as above; conditions: 72 h
NK-92 (IL-2 2.5 ng/mL) [6] = assay: as above; conditions: 72 h
NK-YS (IL-2 2.5 ng/mL) [7] = assay: as above; conditions: 72 h
NKL (IL-2 2.5 ng/mL) [8] = assay: as above; conditions: 72 h
SNK-6 (IL-2 2.5 ng/mL) [9] = assay: as above; conditions: 72 h
YT (IL-2 2.5 ng/mL) [10] = assay: as above; conditions: 72 h
[11] = tested on: normal primary NK cells, pool 1 (3 donors) (IL-2 2.5 ng/mL); assay: as above; conditions: 72 h
[12] = tested on: normal primary NK cells, pool 1 (3 donors), resting (IL-2 0 ng/mL); assay: as above; conditions: 72 h
[13] = tested on: normal primary NK cells, pool 2 (3 donors) (IL-2 2.5 ng/mL); assay: as above; conditions: 72 h
[14] = tested on: normal primary NK cells, pool 3 (3 donors) (IL-2 2.5 ng/mL); assay: as above; conditions: 72 h
[15] = tested on: normal NK cells expanded with K562-aAPC; assay: drug sensitivity score (DSS) (DSS units); higher = more sensitive; extreme values may be limits of the assay; conditions: 72 h; IL-2 2.5 ng/mL
Procedure: as §1

DERL-7 (IL-2 2.5 ng/mL) [16] = assay: as above; conditions: 72 h
IMC-1 (IL-2 20 ng/mL) [17] = assay: as above; conditions: 72 h
KAI3 (IL-2 2.5 ng/mL) [18] = assay: as above; conditions: 72 h
KHYG-1 (IL-2 2.5 ng/mL) [19] = assay: as above; conditions: 72 h
NK-92 (IL-2 2.5 ng/mL) [20] = assay: as above; conditions: 72 h
NK-YS (IL-2 2.5 ng/mL) [21] = assay: as above; conditions: 72 h
NKL (IL-2 2.5 ng/mL) [22] = assay: as above; conditions: 72 h
SNK-6 (IL-2 2.5 ng/mL) [23] = assay: as above; conditions: 72 h
YT (IL-2 2.5 ng/mL) [24] = assay: as above; conditions: 72 h
[25] = tested on: normal primary NK cells, pool 1 (3 donors) (IL-2 2.5 ng/mL); assay: as above; conditions: 72 h
[26] = tested on: normal primary NK cells, pool 1 (3 donors), resting (IL-2 0 ng/mL); assay: as above; conditions: 72 h
[27] = tested on: normal primary NK cells, pool 2 (3 donors) (IL-2 2.5 ng/mL); assay: as above; conditions: 72 h
[28] = tested on: normal primary NK cells, pool 3 (3 donors) (IL-2 2.5 ng/mL); assay: as above; conditions: 72 h

COC(=O)c1ccc2c(c1)NC(=O)/C2=C(\Nc1ccc(N(C)C(=O)CN2CCN(C)CC2)cc1)c1ccccc1 [Nintedanib] (max concentration tested 10000 nM)
percent inhibition of viability [%]
Conditions	1 nM	10 nM	100 nM	1000 nM	10000 nM
DERL-7 (IL-2 2.5 ng/mL) [2]	-8.99	0.01	2.16	38.1	100
IMC-1 (IL-2 20 ng/mL) [3]	-8.95	-2.57	-11.3	-22.3	100
KAI3 (IL-2 2.5 ng/mL) [4]	-8.46	-2.04	1.37	16.4	93.4
KHYG-1 (IL-2 2.5 ng/mL) [5]	-5.39	-3.23	-3.31	20.3	99.6
NK-92 (IL-2 2.5 ng/mL) [6]	-4.93	2.39	-1.05	45.4	99.4
NK-YS (IL-2 2.5 ng/mL) [7]	-4.51	-2.23	-3.24	20.9	99.6
NKL (IL-2 2.5 ng/mL) [8]	-7.94	-17.2	-2.91	56.5	100
SNK-6 (IL-2 2.5 ng/mL) [9]	16.6	7.57	-2.75	-31.8	83.2
YT (IL-2 2.5 ng/mL) [10]	-2.16	-1.03	-3.64	7.19	99.3
[1]	-0.08	-2.82	8.47	31	100
[11]	-7.78	-11	-5.14	38.2	98.9
[12]	-8.23	-15.9	-15.4	47	94.9
[13]	-15.7	-1.56	-14	23.9	99.2
[14]	-18.1	-18.2	-5.82	5.55	99.6

Conditions	drug sensitivity score
DERL-7 (IL-2 2.5 ng/mL) [16]	10.7
IMC-1 (IL-2 20 ng/mL) [17]	4.45
KAI3 (IL-2 2.5 ng/mL) [18]	7.87
KHYG-1 (IL-2 2.5 ng/mL) [19]	8.76
NK-92 (IL-2 2.5 ng/mL) [20]	11.3
NK-YS (IL-2 2.5 ng/mL) [21]	8.84
NKL (IL-2 2.5 ng/mL) [22]	12.3
SNK-6 (IL-2 2.5 ng/mL) [23]	3.37
YT (IL-2 2.5 ng/mL) [24]	6.61
[15]	9.6
[25]	10.6
[26]	11.1
[27]	9.18
[28]	6.33
